Measurements taken from patent US4041022A, “Process for the manufacture of thyrocalcitonin” (Ciba-Geigy Corporation, priority 1967, dated 1977).
Positions of bridges follow the written chain, without caps; N, C: chain ends. Non-standard residues stand in square brackets, D forms with d. Residues, ends and D or L forms follow the SMILES beside them. Met(O) = CS(=O)CC[C@H](N)C(=O)O

Tests used:
solubility = format: physicochemical; settings: for solubility of the acetate: acetate of the peptide; for solubility of the trichloracetate: trichloracetate of the peptide
[1] = stability towards mild oxidation with performic acid; format: physicochemical
Experimental: b. 80 g of Bio-gel P6 are allowed to swell overnight in 0.1N-formic acid, then filled into a chromatography tube (internal diameter 2.5 cm) up to a height of 94 cm (when it has settled; total volume of the gel bed, 460 ml). 600 mg of the crude product obtained as described under (a) above are dissolved in 20 ml of 0.1N-formic acid, the solution poured on to the gel column, and eluted with 0.1N-formic acid. The eluate is passed through a recording UV percolation photometer (254 nm) and collected in fractions of 15 ml each. The eluates are analyzed by thin-layer chromatography over Sephadex G 25 (superfine) (registered Trade Mark) in 0.1N-formic acid (with chlorine/tolidine reagent), and tested biologically. The maximum activity is found in an eluate volume corresponding to 0.8 column volume. The fractions are lyophilized individually and yield 70% of the total activity; the best fractions have an activity of 40 MRC units/mg. The molecular weight of these active substances is below 5000. The product can be further purified by counter-current distribution and/or gel chromatography. For this purpose, batches of 2-5 g of the enriched material are subjected to counter-current distribution over 250-300 stages in the system n-butanol:methanol:0.1N-acetic acid (4:1:5). […]

| solubility of the acetate (solubility) | solubility of the trichloracetate (solubility) | stability towards mild oxidation with performic acid [1] | SMILES |
| --- | --- | --- | --- |
| readily soluble | rather sparingly soluble | stable | CC(C)C[C@H](NC(=O)[C@H](CC(N)=O)NC(=O)[C@H](CCCNC(=N)N)NC(=O)[C@H](Cc1c[nH]c2ccccc12)NC(=O)[C@H](Cc1ccc(O)cc1)NC(=O)[C@H](C)NC(=O)[C@H](CO)NC(=O)[C@H](CC(C)C)NC(=O)[C@@H](NC(=O)[C@@H]1CSSC[C@H](N)C(=O)N[C@@H](CO)C(=O)N[C@@H](CC(N)=O)C(=O)N[C@@H](CC(C)C)C(=O)N[C@@H](CO)C(=O)N[C@@H]([C@@H](C)O)C(=O)N1)C(C)C)C(=O)N[C@@H](CC(N)=O)C(=O)N[C@@H](CC(N)=O)C(=O)N[C@@H](Cc1ccccc1)C(=O)N[C@@H](Cc1c[nH]cn1)C(=O)N[C@@H](CCCNC(=N)N)C(=O)N[C@@H](Cc1ccccc1)C(=O)N[C@@H](CO)C(=O)NCC(=O)N[C@@H](CC[S+](C)[O-])C(=O)NCC(=O)N[C@@H](Cc1ccccc1)C(=O)NCC(=O)N1CCC[C@H]1C(=O)N[C@@H](CCC(=O)O)C(=O)N[C@H](C(=O)N1CCC[C@H]1C(N)=O)[C@@H](C)O (stereo partly drawn) [β-thyrocalcitonin] (H-CSNLSTCVLSAYWRNLNNFHRFSG[Met(O)]GFGPETP-NH2; disulfide 1-7) |
| readily soluble | rather sparingly soluble | becomes a more polar product | CSCC[C@H](NC(=O)CNC(=O)[C@H](CO)NC(=O)[C@H](Cc1ccccc1)NC(=O)[C@H](CCCNC(=N)N)NC(=O)[C@H](Cc1c[nH]cn1)NC(=O)[C@H](Cc1ccccc1)NC(=O)[C@H](CC(N)=O)NC(=O)[C@H](CC(N)=O)NC(=O)[C@H](CC(C)C)NC(=O)[C@H](CC(N)=O)NC(=O)[C@H](CCCNC(=N)N)NC(=O)[C@H](Cc1c[nH]c2ccccc12)NC(=O)[C@H](Cc1ccc(O)cc1)NC(=O)[C@H](C)NC(=O)[C@H](CO)NC(=O)[C@H](CC(C)C)NC(=O)[C@@H](NC(=O)[C@@H]1CSSC[C@H](N)C(=O)N[C@@H](CO)C(=O)N[C@@H](CC(N)=O)C(=O)N[C@@H](CC(C)C)C(=O)N[C@@H](CO)C(=O)N[C@@H]([C@@H](C)O)C(=O)N1)C(C)C)C(=O)NCC(=O)N[C@@H](Cc1ccccc1)C(=O)NCC(=O)N1CCC[C@H]1C(=O)N[C@@H](CCC(=O)O)C(=O)N[C@H](C(=O)N1CCC[C@H]1C(N)=O)[C@@H](C)O [α-thyrocalcitonin] (H-CSNLSTCVLSAYWRNLNNFHRFSGMGFGPETP-NH2; disulfide 1-7) |
